IC50 data for 25 compounds are collected here from US7163940B2, “Pyrazolopyridinyl pyrimidine therapeutic compounds” (SmithKline Beecham Corporation, priority 2000, dated 2007).

Structures can show the parent of a compound that is named as a salt.

One assay relates to HSV-1. As to the kind of experiment: HSV-1 replication in infected Vero 76 cells, viral DNA hybridization capture assay. The class given is cell-based. The settings on record: HSV-1, Vero 76 cells, MOI=0.001, 40–48 hours incubation. How it is done:
Vero 76 cells were maintained in MEM with Earle's salts, L-glutamine, 8% FBS (Hyclone, A-1111-L) and 100 units/mL Penicillin-100 μg/mL Streptomycin. For assay conditions, FBS was reduced to 2%. Cells are seeded into 96-well tissue culture plates at a density of 5×10^4 cells/well after being incubated for 45 min at 37° C. in the presence of HSV-1 or HSV-2 (MOI=0.001). Test compounds are added to the wells and the plates are incubated at 37° C. for 40–48 hours. Cell lysates are prepared as follows: media was removed and replaced with 150 μL/well 0.2 N NaOH with 1% Igepal CA 630 or NP-40. Plates were incubated up to 14 days at room temperature in a humidified chamber to prevent evaporation. • (b) Preparation of Detection DNA.
For the detection probe, a gel-purified, digoxigenin-labeled, […] PCR fragment of the HSV UL-15 sequence was utilized. PCR conditions included 0.5 μM primers, 180 μM dTP, 20 μM dUTP-digoxigenin (Boehringer Mannheim 1558706), 200 μM each of dATP, dCTP, and dGTP, 1×PCR Buffer II (Perkin Elmer), 2.5 mM MgCl2, 0.025 units/μL of AmpliTaq Gold polymerase (Perkin Elmer), and 5 ng of gel-purified HSV DNA per 100 μL. Extension conditions were 10 min at 95° C., followed by 30 cycles of 95° C. for 1 min, 55° C. for 30 sec, and 72° C. for 2 min. The amplification was completed with a 10-min incubation at 72° C. Primers were selected to amplify a 728 bp probe spanning a section of the HSV1 UL15 open reading frame (nucleotides 249–977). Single-stranded transcripts were purified with Promega M13 Wizard kits. The final product was mixed 1:1 with a mixture of 6 M GuSCN, 100 mM EDTA and 200 μg/mL herring sperm DNA and stored at 4° C. • (c) Preparation of Capture Plates.
The capture DNA plasmid (HSV UL13 region in pUC) was linearized by cutting with Xba I, denatured for 15 min at 95° C. and diluted immediately into Reacti-Bind DNA Coating Solution (Pierce, 17250, diluted 1:1 with TE buffer, pH 8) at 1 ng/μL 75 μL/well were added to Corning (#3922 or 9690) white 96-well plates and incubated at room temperature for at least 4 hrs before washing twice with 300 μL/well 0.2×SSC/0.05% Tween-20 (SSC/T buffer). The plates were then incubated overnight at room temperature with 150 μL/well 0.2 N NaOH, 1% IGEPAL and 10 μg/mL herring sperm DNA. • (d) Hybridization.
Twenty-seven (27) μL of cell lysate was combined with 45 μL of hybridization solution (final concentration: 3M GuSCN, 50 mM EDTA, 100 μg/ml salmon sperm DNA, 5× Denhardt's solution, 0.25×APE, and 5 ng of the digoxigenin-labeled detection probe). APE is 1.5 M NH4-acetate, 0.15 M ammonium phosphate, and 5 mM EDTA adjusted to pH 6.0. Mineral oil (50 μL) was added to prevent evaporation. The hybridization plates were incubated at 95° C. for 10 minutes to denature the DNA, then incubated at 42° C. overnight. The wells were washed 6× with 300 μL/well SSC/T buffer then incubated with 75 μL/well anti-digoxigenin-HRP-conjugated antibody (Boehringer Mannheim 1207733, 1:5000 in TE) for 30 min at room temperature. The wells were washed 6× with 300 μL/well with PBS/0.05% Tween-20 before 75 μL/well SuperSignal LBA substrate (Pierce) was added. The plates were incubated at room temperature for 30 minutes and chemiluminescence was measured in a Wallac Victor reader. • e) Results.
The following results were obtained for HSV-1.
One may read the IC50 as the point on the concentration scale where inhibition reaches its midpoint. `Cc1cc(-c2c(-c3ccc(F)cc3)nn3c(NC4CCCC4)cccc23)nc(NC2CCCC2)n1` [Example 8, N-Cyclopentyl-3-[2-(cyclopentylamino)-6-methyl-4-pyrimidinyl]-2-(4-fluorophenyl)pyrazolo[1,5-α]pyridin-7-amine] returned an IC50 of 800 nM.

The assay is the same for the next values; noted with them: Human alphaherpesvirus 1, Vero 76, HSV-1, Vero 76 cells, MOI=0.001, 40–48 hours incubation.
For `Fc1ccc(-c2nn3c(NC4CCCC4)cccc3c2-c2ccnc(NC3CCCC3)n2)cc1` [Example 1, N-cyclopentyl-3-[2-(cyclopentylamino)-4-pyrimidinyl]-2-(4-fluorophenyl)pyrazolo[1,5-α]pyridin-7-amine], the IC50 came out at 300 nM.

`CCCCNc1nccc(-c2c(-c3ccc(Br)cc3)nn3c(NCCCC)cccc23)n1` [Example 2, 2-(4-Bromophenyl)-N-butyl-3-[2-(butylamino)-4-pyrimidinyl]pyrazolo[1,5-α]pyridin-7-amine] displayed an IC50 of 700 nM.

Turning to `CCCCNc1nccc(-c2c(-c3ccc(F)cc3)nn3c(NCCCC)cccc23)n1` [Example 3, N-Butyl-3-[2-(butylamino)-4-pyrimidinyl]-2-(4-fluorophenyl)pyrazolo-[1,5-α]pyridin-7-amine], the IC50 is 500 nM.

As for `CCCCNc1cccc2c(-c3ccnc(NC4CC4)n3)c(-c3ccc(F)cc3)nn12` [Example 4, N-Butyl-3-[2-(cyclopropylamino)-4-pyrimidinyl]-2-(4-fluorophenyl)-pyrazolo[1,5-α]pyridin-7-amine], the midpoint of inhibition, the IC50, lay at 600 nM.

`CCCCNc1cccc2c(-c3ccnc(N4CCCC4)n3)c(-c3ccc(F)cc3)nn12` [Example 5, N-Butyl-2-(4-fluorophenyl)-3-[2-(1-pyrrolidinyl)-4-pyrimidinyl]pyrazolo[1,5-α]pyridin-7-amine] registered a 50% inhibitory concentration (IC50) of 5000 nM.

In turn, `CCCCNc1cccc2c(-c3ccnc(NC4CCCC4)n3)c(-c3ccc(F)cc3)nn12` [Example 6, N-Butyl-3-[2-(cyclopentylamino)-4-pyrimidinyl]-2-(4-fluorophenyl)pyrazolo[1,5-α]pyridin-7-amine] displayed an IC50 of 200 nM.

The compound `Cc1cc(-c2c(-c3ccc(F)cc3)nn3c(Cl)cccc23)nc(NC2CCCC2)n1` [Example 7, 4-[7-Chloro-2-(4-fluorophenyl)pyrazolo[1,5-α]pyridin-3-yl]-N-cyclopentyl-6-methyl-2-pyrimidinamine] gave an IC50 of 3900 nM.

Take `CCCCNc1cccc2c(-c3ccnc(N4CCCC4)n3)c(-c3ccc(Br)cc3)nn12` [Example 9, 2-(4-Bromophenyl)-N-butyl-3-[2-(1-pyrrolidinyl)-4-pyrimidinyl]pyrazolo[1,5-α]pyridin-7-amine]: 8000 nM corresponded to half-maximal inhibition (IC50).

For `CCCCNc1cccc2c(-c3ccnc(NC4CCCC4)n3)c(-c3ccc(Br)cc3)nn12` [Example 10, 2-(4-Bromophenyl)-N-butyl-3-[2-(cyclopentylamino)-4-pyrimidinyl]pyrazolo[1,5-α]pyridin-7-amine], the midpoint of inhibition, the IC50, lay at 5000 nM.

With `CN(C)c1nccc(-c2c(-c3ccc(F)cc3)nn3c(NC4CCCC4)cccc23)n1` [Example 11, N-Cyclopentyl-3-[2-(dimethylamino)-4-pyrimidinyl]-2-(4-fluorophenyl)pyrazolo[1,5-α]pyridin-7-amine], the IC50 was determined as 1000 nM.

Regarding `Nc1nccc(-c2c(-c3ccc(F)cc3)nn3c(NC4CCCC4)cccc23)n1` [Example 12, 3-(2-Amino-4-pyrimidinyl)-N-cyclopentyl-2-(4-fluorophenyl)pyrazolo[1,5-α]pyridin-7-amine], the midpoint of inhibition, the IC50, lay at 500 nM.

`Fc1ccc(-c2nn3c(NC4CCCC4)cccc3c2-c2ccnc(NCCCN3CCOCC3)n2)cc1` [Example 13, N-Cyclopentyl-2-(4-fluorophenyl)-3-(2-{[3-(4-morpholinyl)propyl]-amino}-4-pyrimidinyl)pyrazolo[1,5-α]pyridin-7-amine] gave an IC50 of 6000 nM.

With `Cc1cc(-c2c(-c3ccc(F)cc3)nn3c(NN)cccc23)nc(NC2CCCC2)n1` [Example 14, N-Cyclopentyl-4-[2-(4-fluorophenyl)-7-hydrazinopyrazolo[1,5-α]pyridin-3-yl]-6-methyl-2-pyrimidinamine], half-maximal inhibition (IC50) was put at 5000 nM.

Turning to `Cc1cc(-c2c(-c3ccc(F)cc3)nn3c(N4CCN(C)CC4)cccc23)nc(NC2CCCC2)n1` [Example 15, N-Cyclopentyl-4-[2-(4-fluorophenyl)-7-(4-methyl-1-piperazinyl)pyrazolo[1,5-α]pyridin-3-yl]-6-methyl-2-pyrimidinamine], the half-maximal inhibitory concentration (IC50) came out at 5000 nM.

Consider `Fc1ccc(-c2nn3c(NC4CCCC4)cccc3c2-c2cc(COC3CCCCO3)nc(NC3CCCC3)n2)cc1` (stereo not drawn) [Example 16, N-Cyclopentyl-3-{2-(cyclopentylamino)-6-[(tetrahydro-2H-pyran-2-yloxy)methyl]-4-pyrimidinyl}-2-(4-fluorophenyl)pyrazolo[1,5-α]pyridin-7-amine], for which the IC50 was 40000 nM.

The compound `OCc1cc(-c2c(-c3ccc(F)cc3)nn3c(Cl)cccc23)nc(NC2CCCC2)n1` [Example 17, [6-[7-Chloro-2-(4-fluorophenyl)pyrazolo[1,5-α]pyridin-3-yl]-2-(cyclopentylamino)-4-pyrimidinyl]methanol] registered an IC50 of 3000 nM.

Compound `CN(CC(=O)O)c1nccc(-c2c(-c3ccc(F)cc3)nn3c(NC4CCCC4)cccc23)n1` [Example 18, [{4-[7-(Cyclopentylamino)-2-(4-fluorophenyl)pyrazolo[1,5-α]pyridin-3-yl]-2-pyrimidinyl}(methyl)amino]acetic acid] came in with a half-maximal inhibitory concentration (IC50) of 20000 nM.

`CN1CCN(c2cccc3c(-c4cc(-c5ccccc5)nc(NC5CCCC5)n4)c(-c4ccc(F)cc4)nn23)CC1` [Example 19, N-Cyclopentyl-4-[2-(4-fluorophenyl)-7-(4-methyl-1-piperazinyl)pyrazolo[1,5-α]pyridin-3-yl]-6-phenyl-2-pyrimidinamine hydrochloride] showed an IC50 of 2500 nM.

In the case of `NCCNc1cccc2c(-c3cc(-c4ccccc4)nc(NC4CCCC4)n3)c(-c3ccc(F)cc3)nn12` [Example 20, N′-[3-[2-(Cyclopentylamino)-6-phenyl-4-pyrimidinyl]-2-(4-fluorophenyl)pyrazolo[1,5-α]pyridin-7-yl]-1,2-ethanediamine], it took 3000 nM to reach half-maximal inhibition (IC50).

`Nc1cccc2c(-c3ccnc(NC4CCCC4)n3)c(-c3ccc(F)cc3)nn12` [Example 21, 3-[2-(Cyclopentylamino)-4-pyrimidinyl]-2-(4-fluorophenyl)pyrazolo[1,5-α]pyridin-7-amine]: half-maximal inhibition (IC50) required 1000 nM.

On to `OCc1cc(-c2c(-c3ccc(F)cc3)nn3c(NC4CCCC4)cccc23)nc(NC2CCCC2)n1` [Example 22, {2-(Cyclopentylamino)-6-[7-(cyclopentylamino)-2-(4-fluorophenyl)pyrazolo[1,5-α]pyridin-3-yl]-4-pyrimidinyl}methanol], for which inhibition was half-maximal at 5000 nM (IC50).

`COc1ccc(Nc2cccc3c(-c4ccnc(NC5CCCC5)n4)c(-c4ccc(F)cc4)nn23)cc1` [Example 23, 3-[2-(Cyclopentylamino)-4-pyrimidinyl]-2-(4-fluorophenyl)-N-(4-methoxyphenyl)pyrazo[1,5-α]pyridin-7-amine]: the IC50 came out at 1000 nM.

For the compound `COC(=O)CNc1cccc2c(-c3cc(C)nc(NC4CCCC4)n3)c(-c3ccc(F)cc3)nn12` [Example 24, Methyl {[3-[2-(cyclopentylamino)-6-methyl-4-pyrimidinyl]-2-(4-fluorophenyl)pyrazolo[1,5-α]pyridin-7-yl]amino}acetate], the IC50 came out at 10000 nM.

As for `Cc1cc(-c2c(-c3ccc(F)cc3)nn3c(NCC(=O)O)cccc23)nc(NC2CCCC2)n1` [Example 25, {[3-[2-(Cyclopentylamino)-6-methyl-4-pyrimidinyl]-2-(4-fluorophenyl)pyrazolo[1,5-α]pyridin-7-yl]amino}acetic acid], it took 15000 nM to reach half-maximal inhibition (IC50).
